# Experimental data from patent US20110009379A1, “INDOLINONE COMPOUND” (ASTELLAS PHARMA INC., priority 2008, published 2011).
# Assays:
# [1] = tested on: gastric emptying of rats; experiment: Activity to gastric emptying of TRPA1 agonist (phenol red, rats); format: in vivo; details: Rattus norvegicus; male wistar rats, oral administration, versus control animals; read-out: ED50 (amount which suppresses 50% of gastric emptying)
# From the text: When EC cell is stimulated by content of a gastrointestinal tract, 5-HT is secreted. The secreted 5-HT promotes the secretion or motility through a 5-HT receptor present in intestinal nerve plexus or gastrointestinal smooth muscle. The secreted 5-HT is instantly taken into a cell by its specific transporter, and is metabolized by […]. Thus, while it is considerably difficult to directly measure the secreted 5-HT concentration, it has been known that gastric emptying is delayed as a physiological activity through 5-HT in rodents. In order to verify in vivo activity through 5-HT of the compound to be tested, activity to gastric emptying of rats by various TRPA1 agonists was studied.
# In the experiment, male wistar rats (body weight 290 to 360 g) were used. The animals were purchased from Japan SLC (Shizuoka). The animals were allowed to drink water freely under a constitutive environment.
# 5 minutes after the medicine was orally administered, 0.05% phenol red solution (1.5 mL) was orally administered. After 15 minutes, rats were put painlessly to death by cervical vertebral dislocation, their stomachs were exenterated, and phenol red was eluted with 0.1M aqueous NaOH solution (5 mL) from the exenterated stomachs. 20% aqueous trichloroacetic acid solution (0.1 mL) was added to the NaOH solution (0.5 mL), followed by stirring and centrifugation at 15,000 rpm, at 4° C., for 10 minutes. 0.5M aqueous NaOH solution (0.2 mL) was added to the supernatant (0.05 mL), followed by stirring, and absorbance at 560 nm was measured using an absorption spectrometer (spectrometer spectramax M2; Molecular Devices, CA, USA).
# A gastric emptying was calculated by the following calculating formula.
# Gastric emptying (%)=100−(A/B)×100
# A: amount of phenol red remaining in stomach
# B: amount of phenol red remaining in stomach just after administering phenol red
# ED50 values (amount of the compound to be tested which suppresses 50% of gastric emptying, with respect to the control animals without administering the compound to be tested) of some of the compounds of the formula (I) are shown in Table 2. In this connection, comparative compound 1 and comparative compound 2 are (3E)-1-methyl-3-(2-oxopropyridene)-1,3-dihydro-2H-indol-2-one, and (3E)-3-(2-oxopropyridene)-1-prop-2-in-1-yl-1,3-dihydro-2H-indol-2-one described in Non Patent Document 4 above, and has the following chemical structures, respectively.
# [2] = target: Cytochrome P450(2D6) (Homo sapiens, UniProt P10635); experiment: Cytochrome P450(2D6) enzyme inhibition test; format: in vitro ADME; details: CYP2D6, fluorescent substrate 1.5 μmol/L, 37° C., 20 minutes
# Procedure, shortened: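 CYP2D6 (2.5×10^-8 M) incubated 20 min at 37 °C with 1.5 μmol/L AMMC substrate and compound (3.1×10^-7 to 2×10^-5 M) in pH 7.4 phosphate buffer with NADPH-regenerating system. Stopped with Tris/acetonitrile, fluorescence read at ex 390/em 460 nm, and IC50 taken at 50% inhibition.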
# Cytochrome P450(2D6), sequence (P10635 whole entry): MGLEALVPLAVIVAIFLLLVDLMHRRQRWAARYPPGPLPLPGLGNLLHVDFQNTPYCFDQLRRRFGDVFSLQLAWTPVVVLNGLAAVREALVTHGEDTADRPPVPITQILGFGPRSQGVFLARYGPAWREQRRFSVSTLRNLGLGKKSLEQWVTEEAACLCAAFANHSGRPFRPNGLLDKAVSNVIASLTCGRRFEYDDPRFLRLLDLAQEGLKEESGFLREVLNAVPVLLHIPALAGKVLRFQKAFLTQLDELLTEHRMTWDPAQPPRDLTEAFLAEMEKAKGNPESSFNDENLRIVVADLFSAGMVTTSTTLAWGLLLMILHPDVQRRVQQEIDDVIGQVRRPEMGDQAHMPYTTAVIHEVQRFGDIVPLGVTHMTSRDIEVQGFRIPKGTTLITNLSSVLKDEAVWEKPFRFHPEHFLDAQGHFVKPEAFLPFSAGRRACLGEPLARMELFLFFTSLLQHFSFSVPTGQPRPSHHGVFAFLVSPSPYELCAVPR
smiles,measurement,setting,value
"O=C(O)/C=C1/C(=O)N(CC2CCCC2)c2c(F)cccc21 [Example 28, (2E)-[1-(cyclopentylmethyl)-7-fluoro-2-oxo-1,2-dihydro-3H-indol-3-ylidene]acetic acid]",melting point,,151 to 153 °C
same,ED50,[1],0.44 mg/kg
same,IC50,[2],> 25 µM
